Holding throughout (format): cell-based
The subject of test [1] is Mannheimia haemolytica MH 13093 (XB0472-6014.1, BRD field isolate). Put plainly: MIC, broth-microdilution (CLSI VET01-A4), strain MH 13093. To be noted: Mannheimia haemolytica strain MH 13093, broth-microdilution; unit assumed. Summed up:
(§1)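 Doubling dilution series in trays; visual read, MIC = lowest conc. with no visible turbidity; interpretation per CLSI VET01-S3.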

Test [2] deals with Mannheimia haemolytica MH 10720 (154, BRD field isolate). Put plainly: MIC, broth-microdilution (CLSI VET01-A4), strain MH 10720. To be noted: Mannheimia haemolytica strain MH 10720, broth-microdilution; unit assumed. The essentials: as §1
For orientation: In broth dilution the organism is exposed to a series of concentrations in liquid medium.

Test [3] relates to Mannheimia haemolytica MH 13065 (XB0446-6003.9, BRD field isolate). Put plainly: MIC, broth-microdilution (CLSI VET01-A4), strain MH 13065. To be noted: Mannheimia haemolytica strain MH 13065, broth-microdilution; unit assumed. Summed up:
as §1

For test [4], the system named is Pasteurella multocida PM 12080 (IV102277-0093, BRD field isolate). The test is described as follows: MIC, broth-microdilution (CLSI VET01-A4), strain PM 12080. To be noted: Pasteurella multocida strain PM 12080, broth-microdilution; unit assumed. Summed up: as §1
Test [5] has as its system Mannheimia haemolytica MH 6374 (ATCC 33396, reference strain). The test is described as follows: MIC, broth-microdilution (CLSI VET01-A4), strain MH 6374. To be noted: Mannheimia haemolytica strain MH 6374, broth-microdilution; unit assumed. Summed up:
as §1

The test system of test [6] is Pasteurella multocida PM 6267 (P 2225 (L386), reference strain, mouse infection strain). Put plainly: MIC, broth-microdilution (CLSI VET01-A4), strain PM 6267. To be noted: Pasteurella multocida strain PM 6267, broth-microdilution; unit assumed. The essentials:
as §1

In test [7] the test system is Mannheimia haemolytica MH 12587 (1071, BRD field isolate, macrolide-resistance: erm+, E+). Put plainly: MIC, broth-microdilution (CLSI VET01-A4), strain MH 12587. To be noted: Mannheimia haemolytica strain MH 12587, broth-microdilution; unit assumed. The essentials: as §1
Test [8] deals with Pasteurella multocida PM 10775 (080130003051, BRD field isolate). Put plainly: MIC, broth-microdilution (CLSI VET01-A4), strain PM 10775. To be noted: Pasteurella multocida strain PM 10775, broth-microdilution; unit assumed. The essentials:
as §1

Test [9] has as its system Mannheimia haemolytica MH 6357 (M7/2, reference strain, cattle infection strain). Put plainly: MIC, broth-microdilution (CLSI VET01-A4), strain MH 6357. To be noted: Mannheimia haemolytica strain MH 6357, broth-microdilution; unit assumed. The essentials:
as §1

Test [10] concerns Pasteurella multocida PM 6391 (ATCC 43137, reference strain). Put plainly: MIC, broth-microdilution (CLSI VET01-A4), strain PM 6391. To be noted: Pasteurella multocida strain PM 6391, broth-microdilution; unit assumed. The essentials:
as §1

In brackets after ≈: the same amount, converted by molar mass.

Compound `CCCNCc1ccc(C#Cc2ccc(C(=O)N[C@H](C(=O)NO)C(C)=NOC)cc2)cc1` [Compound 387] came in with an MIC MH 13093 in [1] of 3.1 µg/mL (≈ 7.1 µM). This compound also returned an MIC MH 10720 in [2] of 3.1 µg/mL (≈ 7.1 µM). The same compound registered an MIC MH 13065 in test [3] of 6.3 µg/mL (≈ 14.4 µM). For the same compound, the MIC PM 12080 in test [4] worked out at 0.2 µg/mL (≈ 0.458 µM). For the same compound, the MIC MH 6374 in [5] was 6.3 µg/mL (≈ 14.4 µM). For the same compound, the MIC PM 6267 in test [6] amounted to 25 µg/mL (≈ 57.3 µM). The MIC MH 12587 in test [7] is 1.6 µg/mL (≈ 3.67 µM). The MIC PM 10775 in test [8] turned out to be 1.6 µg/mL (≈ 3.67 µM). This compound showed an MIC MH 6357 in [9] of 6.3 µg/mL (≈ 14.4 µM). Also, the MIC PM 6391 in [10] stood at 0.4 µg/mL (≈ 0.916 µM).

For the compound `CON=C(C)[C@H](NC(=O)c1ccc(C#Cc2ccc(CNCc3cccnc3)cc2)cc1)C(=O)NO` [Compound 388], the MIC MH 13093 in test [1] amounted to 0.8 µg/mL (≈ 1.65 µM). Further, in [2], the MIC MH 10720 amounted to 0.8 µg/mL (≈ 1.65 µM). The same compound gave an MIC MH 13065 in test [3] of 0.8 µg/mL (≈ 1.65 µM). In [4], the MIC PM 12080 was at most 0.1 µg/mL. In test [5], this compound returned an MIC MH 6374 of 0.8 µg/mL (≈ 1.65 µM). Also, the MIC PM 6267 in test [6] came to 3.1 µg/mL (≈ 6.38 µM). The compound further displayed an MIC MH 12587 in [7] of 0.2 µg/mL (≈ 0.412 µM). Further, the MIC PM 10775 in [8] is 0.2 µg/mL (≈ 0.412 µM). For the same compound, the MIC MH 6357 in test [9] came to 0.4 µg/mL (≈ 0.824 µM). This compound had an MIC PM 6391 in test [10] of at most 0.1 µg/mL.

In turn, `CON=C(C)[C@H](NC(=O)c1ccc(C#Cc2ccc(CNCc3ccnc(Cl)c3)cc2)cc1)C(=O)NO` [Compound 389] gave an MIC MH 13093 in test [1] of 1.6 µg/mL (≈ 3.08 µM). For the same compound, the MIC MH 10720 in [2] is 0.8 µg/mL (≈ 1.54 µM). In test [3], this compound displayed an MIC MH 13065 of 1.6 µg/mL (≈ 3.08 µM). The compound further gave an MIC PM 12080 in test [4] of 0.4 µg/mL (≈ 0.769 µM). For the same compound, in test [5], the MIC MH 6374 came to 1.6 µg/mL (≈ 3.08 µM). This compound also displayed an MIC PM 6267 in [6] of 3.1 µg/mL (≈ 5.96 µM). In addition, the MIC MH 12587 in [7] was 0.4 µg/mL (≈ 0.769 µM). The MIC PM 10775 in test [8] came out at 0.4 µg/mL (≈ 0.769 µM). In test [9], this compound registered an MIC MH 6357 of 0.8 µg/mL (≈ 1.54 µM). The same compound had an MIC PM 6391 in [10] of at most 0.1 µg/mL.

`CON=C(C)[C@H](NC(=O)c1ccc(C#Cc2ccc(CNCc3ccccn3)cc2)cc1)C(=O)NO` [Compound 390] registered an MIC MH 13093 in [1] of 0.8 µg/mL (≈ 1.65 µM). In addition, the MIC MH 10720 in test [2] worked out at 0.8 µg/mL (≈ 1.65 µM). The compound also registered an MIC MH 13065 in test [3] of 0.8 µg/mL (≈ 1.65 µM). The same compound yielded an MIC PM 12080 in [4] of 0.2 µg/mL (≈ 0.412 µM). In test [5], this compound registered an MIC MH 6374 of 1.6 µg/mL (≈ 3.3 µM). The MIC PM 6267 in test [6] worked out at 3.1 µg/mL (≈ 6.38 µM). This compound also gave an MIC MH 12587 in test [7] of 0.2 µg/mL (≈ 0.412 µM). The compound further displayed an MIC PM 10775 in [8] of 0.4 µg/mL (≈ 0.824 µM). In [9], this compound showed an MIC MH 6357 of 0.4 µg/mL (≈ 0.824 µM). This compound showed an MIC PM 6391 in test [10] of at most 0.1 µg/mL.

Consider `CON=C(C)[C@H](NC(=O)c1ccc(C#Cc2ccc(CNCc3ccco3)cc2)cc1)C(=O)NO` [Compound 391], for which, in test [1], the MIC MH 13093 came out at 0.4 µg/mL (≈ 0.843 µM). The same compound yielded an MIC MH 10720 in [2] of 0.4 µg/mL (≈ 0.843 µM). In test [3], this compound registered an MIC MH 13065 of 0.4 µg/mL (≈ 0.843 µM). For the same compound, in test [4], the MIC PM 12080 is at most 0.1 µg/mL. For the same compound, the MIC MH 6374 in test [5] came to 0.4 µg/mL (≈ 0.843 µM). Besides, the MIC PM 6267 in test [6] is 1.6 µg/mL (≈ 3.37 µM). The same compound displayed an MIC MH 12587 in test [7] of at most 0.1 µg/mL. In test [8], this compound showed an MIC PM 10775 of 0.4 µg/mL (≈ 0.843 µM). Also, the MIC MH 6357 in test [9] worked out at 0.4 µg/mL (≈ 0.843 µM). Further, the MIC PM 6391 in test [10] was at most 0.1 µg/mL.

In [1], `CON=C(C)[C@H](NC(=O)c1ccc(C#Cc2ccc(CNCc3cccs3)cc2)cc1)C(=O)NO` [Compound 392] showed an MIC MH 13093 of 0.4 µg/mL (≈ 0.815 µM). The compound further yielded an MIC MH 10720 in test [2] of 0.4 µg/mL (≈ 0.815 µM). For the same compound, in test [3], the MIC MH 13065 stood at 0.4 µg/mL (≈ 0.815 µM). This compound also registered an MIC PM 12080 in test [4] of at most 0.1 µg/mL. In test [5], this compound returned an MIC MH 6374 of 0.4 µg/mL (≈ 0.815 µM). In test [6], the MIC PM 6267 was found to be 1.6 µg/mL (≈ 3.26 µM). In test [7], this compound showed an MIC MH 12587 of at most 0.1 µg/mL. This compound also displayed an MIC PM 10775 in test [8] of 0.4 µg/mL (≈ 0.815 µM). In test [9], the MIC MH 6357 turned out to be 0.4 µg/mL (≈ 0.815 µM). Besides, in test [10], the MIC PM 6391 was at most 0.1 µg/mL.

Turning to `CON=C(C)[C@H](NC(=O)c1ccc(C#Cc2ccc(CNCc3ccc(C)cc3)cc2)cc1)C(=O)NO` [Compound 393], the MIC MH 13093 in test [1] turned out to be 6.3 µg/mL (≈ 12.6 µM). Also, the MIC MH 10720 in test [2] came out at 0.8 µg/mL (≈ 1.6 µM). The MIC MH 13065 in [3] worked out at 6.3 µg/mL (≈ 12.6 µM). The compound further registered an MIC PM 12080 in [4] of 0.4 µg/mL (≈ 0.802 µM). Besides, the MIC MH 6374 in test [5] worked out at 1.6 µg/mL (≈ 3.21 µM). In addition, the MIC PM 6267 in test [6] worked out at 6.3 µg/mL (≈ 12.6 µM). This compound also gave an MIC MH 12587 in [7] of 0.4 µg/mL (≈ 0.802 µM). Moreover, the MIC PM 10775 in test [8] turned out to be 0.8 µg/mL (≈ 1.6 µM). Besides, in [9], the MIC MH 6357 was 0.8 µg/mL (≈ 1.6 µM). Also, the MIC PM 6391 in test [10] is 0.2 µg/mL (≈ 0.401 µM).

For the compound `CON=C(C)[C@H](NC(=O)c1ccc(C#Cc2ccc(CNCC3CCCO3)cc2)cc1)C(=O)NO` (some centres unmarked) [Compound 394], the MIC MH 13093 in [1] stood at 3.1 µg/mL (≈ 6.48 µM). In addition, the MIC MH 10720 in [2] amounted to 1.6 µg/mL (≈ 3.34 µM). The MIC MH 13065 in test [3] came out at 3.1 µg/mL (≈ 6.48 µM). The MIC PM 12080 in test [4] came out at 0.4 µg/mL (≈ 0.836 µM). In [5], the MIC MH 6374 worked out at 6.3 µg/mL (≈ 13.2 µM). Also, in test [6], the MIC PM 6267 was found to be 6.3 µg/mL (≈ 13.2 µM). Moreover, in [7], the MIC MH 12587 was 0.8 µg/mL (≈ 1.67 µM). Moreover, the MIC PM 10775 in [8] was 0.8 µg/mL (≈ 1.67 µM). Besides, the MIC MH 6357 in [9] stood at 3.1 µg/mL (≈ 6.48 µM). Moreover, in test [10], the MIC PM 6391 worked out at 0.2 µg/mL (≈ 0.418 µM).

(Values after US11034650B2, “Compounds useful for treating a Mannheimia haemolytica or Histophilus somni infection” (Intervet Inc., priority 2016, dated 2021).)
